The values below come from US11891703B2, “Corrosion inhibition package” (DORF KETAL CHEMICALS FZE, priority 2017, dated 2024).

For data set [1] the following is noted: cited from earlier work.
Data set [2] is described as follows: Corrosion test of acid compositions with corrosion inhibition package on 1018 steel coupons. The following applies: Table 3, 1.2:1 HCl-Urea, 50% dilution in seawater, 90° C., 6 hours, 1% package + 1% CI-1A. The text has this:
Various types of steel alloy coupons were subjected to corrosion testing in the presence of conventional, synthetic and modified acid compositions using corrosion inhibitor components according to preferred embodiments of the present invention at various temperatures. Coupons of various grades of steel alloys (indicated in each table) were exposed to the various listed compositions for various periods of time at varying temperatures.
The following corrosion testing outlined in the tables below for a number of different corrosion inhibition packages according to the present invention in the presence of a synthetic or modified acid composition was carried out diluted with saline water (in most cases) at various temperatures for various durations of exposure. Depending on the intended use/application of an acidic fluid composition comprising a corrosion inhibitor package according to the present invention, a desirable result would be one where the lb/ft^2 corrosion number is at or below 0.05. A more desirable would be one where the corrosion (in lb/ft^2) is at or below 0.02. Generally, seawater has the deleterious effect of potentiating corrosion, consequently corrosion inhibition packages which follow the guidelines or regulations for offshore oil production are highly desirable for operators. Where applicable the fluids (acid compositions) were diluted as indicated.

The conditions of data set [3]: death can occur in 2-3 minutes; cited from earlier work.
For data set [4] the following is noted: cited from earlier work. The source holds these as a separate data set.

As for `C#CCO` [propargyl alcohol], in data set [1], the “performance on Cr-13 alloys (pitting)” value is “poor performance”.
With `O=CC=Cc1ccccc1` [ZA, Cinnamaldehyde], in data set [2], the “Corrosion lb/ft2” value is on record as 0.008 lb/ft2, the “Corrosion rate Mils/yr” value was found to be 296.053 Mils/yr, the Corrosion rate mm/year is listed as 7.52 mm/year and the Wt loss is recorded as 0.168 g.
As to `Cl` [Hydrogen chloride gas, Hydrogen chloride], in data set [3], the “level at which death can occur” value is 1300-2000 ppm.
Regarding `CCCCCCOCCOCCOCCO` [NOVEL® 6-3 Ethoxylate, CH3 (CH2)4CH2(OCH2CH2)3OH], in data set [4], the solubility in hydrocarbons entry is recorded as “soluble” and the solubility in water entry is “sparingly soluble”.
